Laboratory results taken from US8242203B2, “Covalently attached nile blue derivatives for optical sensors” (priority 2005, dated 2012).
Where two headings read alike, the source gives them in different places.

Key:
[1] = comparison value, cited from earlier work
[2] = Leaching of chromoionophore from ISE membrane during conditioning and measurement; type: physicochemical; conditions: conditioning in contact with buffer and measurements
Experimental: ISE Membrane Preparation and Measurements. ISE membranes were prepared by dissolving chromoionophore (10 mmol/kg), NaTFPB (2 mmol/kg), PVC and plasticizer (DOS or NPOE) to give a total cocktail mass of 140 mg in 1.5 mL of THF. The cocktail of the membrane with grafted chromoionophore contained 2 mmol/kg NaTFPB, 10 wt % MMA-DMA polymer with grafted indicators, PVC and plasticizer (DOS or NPOE). Cocktails were poured into glass rings (2.2 cm i.d.) affixed onto glass microscope slides.
The solvent was evaporated overnight to give a transparent membrane. The parent membranes were then conditioned for at least 12 hours in pH buffered solutions. For pH titrations, buffer solutions are 10 mM citric acid and 10 mM boric acid with the indicated concentrations of NaCl (either 10 mM or 0.1 mM) adjusted to pH 1.5 by 1 M standard HCl, or 10 mM phosphate buffer solution with NaCl as background. The solution was titrated with a 0.1 M standard NaOH solution and a pH electrode was used to monitor the sample pH. All experimental results given are the average of at least three electrodes, with calculated standard deviations.
The first polymerizable chromoionophore NB1 is a derivative of the highly basic oxazine-dye molecule Nile Blue attached to a acryloyloxybenzoyl group. The pH responses of NB1 based ion selective electrode (“ISE”) membranes were investigated first. […]

leaching of the dye from the ISE membrane [2]	Compound	pKa ([1]; PVC-DOS)	pKa ([1]; PVC-NPOE)
	CCCCCCCCCCCCCCCCCC(=O)N=c1cc2oc3cc(N(CC)CC)ccc3nc-2c2ccccc12 [ETH 5294, 9-(diethylamino)-5-octadecanoylimino-5H-benzo[a]phenoxazine]	11.4	14.8
found to leach from the membrane	C=CC(=O)Oc1ccc(C(=O)/N=c2/cc3oc4cc(N(CC)CC)ccc4nc-3c3ccccc23)cc1 [NB1]		
